Measurements taken from patent US20030153073A1, “Expansion of T cells in vitro and expanded T cell populations” (priority 2001, published 2003).

Assays:
Molt-4 = assay: 51Cr cytotoxicity assay, Vα24+ T cell effectors, Molt-4 targets; format: cell-based, human; settings: data not shown
RAJI = assay: 51Cr cytotoxicity assay, Vα24+ T cell effectors, RAJI targets; format: cell-based, human; settings: data not shown
Description: (§1) The cell lines U937 (histiocytic lymphoma), RAJI (Burkitt's B cell lymphoma), and K562 (erythroleukemia) were originally obtained from the American Type Culture Collection, ATCC (Mannassas, Va.) and were a gift from Dr. D. Green (La Jolla Institutive for Allergy and Immunology (LIAI), San Diego, Calif.). The T cell leukemia Jurkat cell line was obtained from Nobuaki Takahashi (Kirin Brewery Co., Ltd., Gunma, Japan). Cells were maintained in RPMI-1640 with 10% fetal calf serum (GibcoBRL), penicillin, streptomycin, 2-mercaptoethanol, and Hepes as described previously. For cytotoxic assays, cells were cultured at 1×10^5/ml with 50 ng/ml KRN7000, β-GalCer, or 0.5% DMSO (vehicle) for 16 hours prior to assay.
(§2) ^51Cr cytotoxicity assays were performed as follows. A total of 5×10^3 51Cr-labeled cells (Na2^51CrO3) (ICN Biomedicals, Inc.) from the U937, K562, or Jurkat cell line as the target cells and various numbers of effector Vα24^+ T cells in 0.2 ml of culture medium were seeded into round-bottom microtiter wells. The culture was incubated at 37° C. in an atmosphere containing 6% CO2 for 5 h, and 0.1 ml of supernatant was collected from each well. The percentage of specific ^51Cr release was calculated as follows: [(cpm experimental−cpm spontaneous release)/(cpm maximal release−cpm spontaneous release)]×100.

K562 = assay: 51Cr cytotoxicity assay, Vα24+ T cell effectors, K562 targets; format: cell-based, human; settings: targets pre-pulsed (FIG. 4)
Description: as §1, §2

[1] = test system: CD3^+hCD1d/KRN7000 Tetramer^+ T cells; assay: Expansion of CD3+ hCD1d/KRN7000 Tetramer+ T cells in PBMC culture, 7 days; format: cell-based, human
Jurkat tumor cells = assay: 51Cr cytotoxicity assay, Vα24+ T cell effectors, Jurkat targets; format: cell-based, human; settings: targets pulsed 16 hours with 50 ng/ml glycolipid (FIG. 4)
Description: as §1
as §2, with “release)]×100. […]” for “release)]×100.”

U937 = assay: 51Cr cytotoxicity assay, Vα24+ T cell effectors, U937 targets; format: cell-based, human; settings: targets pulsed 16 hours with 50 ng/ml glycolipid (FIG. 4)
Description: as §1, §2

PBMC = assay: Proliferation of PBMCs, [3H]-thymidine incorporation; format: cell-based, human; settings: donor 9 PBMC, 5 days, tritiated thymidine incorporation

Row | Compound | increase in Vα24/Vβ11 cells with autologous donor serum versus commercial pooled human serum (Vα24^+Vβ11^+ T cells; 3 donors, KRN7000 and rhIL-2, 7 days) | Percentage of Vα24/Vβ11 cells (Vα24^+Vβ11^+ T cells; donor 9 PBMC, 7 days, flow cytometry) [%] | Number of Vα24Vβ11 cells (Vα24^+Vβ11^+ T cells; donor 9 PBMC, day 7, cell recovery × percentage) | killing of Molt-4 target cells by expanded Vα24^+ T cells (Molt-4) | killing of RAJI target cells by expanded Vα24^+ T cells (RAJI) | lysis of glycolipid-pulsed K562 target cells by expanded Vα24^+ T cells (K562) | % CD^3+ Tetramer^+ cells ([1]; PBMC 1×10^6/ml, 7 days, KRN7000 100 ng/ml, rhIL-2 10 ng/ml, rhIL-15 100 ng/ml, flow cytometry) [%] | number of Tetramer^+ cells ([1]; percentage × cells recovered, day 7) | lysis of glycolipid-pulsed Jurkat target cells by CD4^+ and CD4^− expanded Vα24^+ T cells (Jurkat tumor cells) | lysis of glycolipid-pulsed U937 target cells by CD4^+ and CD4^− expanded Vα24^+ T cells (U937) | Proliferation, cpm (PBMC) | Proliferation, cpm (PBMC; listed as KRN7000 only)
1 | CCCCCCCCCCCCCCCCCCCCCCCCCC(=O)N[C@@H](CO[C@H]1O[C@H](CO)[C@H](O)[C@H](O)[C@H]1O)[C@H](O)[C@H](O)CCCCCCCCCCCCCC [KRN7000, (2S,3S,4R)-1-O-(alpha-D-Galactopyranosyl)-N-hexacosanoyl-2-amino-1,3,4-octadecanetriol] | up to 7 times | 0.25 | 2,125 | not killed | not killed | not lysed | 0.03 | 312 | lysed | lysed | little or no proliferation | 1,145 cpm
2 | β-galactosylceramide [β-GalCer] |  |  |  |  |  |  |  |  | not lysed | not lysed |  | 
